Measurements published in patent publication US12728119B2, “Pharmaceutical composition for preventing or treating cancer comprising 3-ketoacyl CoA thiolase inhibitor and carnitine acylcarnitine carrier inhibitor” (NATIONAL CANCER CENTER, priority 2020, dated 2026).
Where “and” joins values, the source holds several entries; their conditions need not be identical. Equal values may be shown once.

How the values were obtained:
Type in all cases: cell-based
[1] = tested on: SNU-324 pancreatic cancer cells; assay: SRB analysis 2; settings: SNU324, 48 hours
Protocol: (§1) The SRB assay was performed as follows: each cell line (100 μl) was seeded into 96-well microtiter plates at densities ranging from 5,000 to 20,000 cells/well depending on the doubling time of each cell line. After cell seeding, microtiter plates were incubated for 24 h before addition of experimental drug. Drugs were prepared at the indicated concentrations and 100 μl was added to each well; The plates were then incubated in a CO2 incubator. Then, cold TCA was added to terminate the assay. Cells were fixed in situ by gentle addition of 50 μl of cold 50% (w/v) TCA (final concentration: 10% TCA) and incubated at 4° C. for 60 min. The supernatant was discarded and the plate was washed 5 times with tap water and then air dried. A solution (100 μl) of 0.4% (w/v) SRB (Sulforhodamine B) in 1% acetic acid was added to each well, and the plate was left at room temperature for 10 minutes. After staining, the plates were air dried after washing 5 times with 1% acetic acid to remove unbound dye. The bound dye was then solubilized with 10 mM trizma base and the absorbance was recorded at 515 nm using an automated plate reader.

[2] = tested on: MIA PaCa2 pancreatic cancer cells; assay: SRB analysis 2; settings: MIA PaCa-2, 48 hours
Protocol: as §1

[3] = tested on: SU.86.86 pancreatic cancer cells; assay: SRB analysis 2; settings: 48 hours
Protocol: as §1

[4] = tested on: AsPC-1 pancreatic cancer cells; assay: SRB analysis 2; settings: 48 hours
Protocol: as §1

[5] = tested on: BxPC-3 pancreatic cancer cells; assay: SRB analysis 2; settings: 48 hours
Protocol: as §1

[6] = tested on: SNU-213 pancreatic cancer cells; assay: SRB analysis 2; settings: SNU213, 48 hours
Protocol: as §1

[7] = tested on: Capan1 pancreatic cancer cell line; assay: SRB analysis 1; settings: Homo sapiens, % compared to the control group, read-out: degree of growth inhibition
Protocol: (§2) Pancreatic cancer (MIA PaCa2, Capan1, Capan2, BxPC-3, SNU-213 or SNU-324) cell lines (100 μl) were seeded into 96-well microtiter plates at densities ranging from 7,500 to 10,000 cells/well depending on the doubling time of each cell line. After adding Trimetazidine (KN713) 1 mM, omeprazole (KN510) 100 or 200 μM, trimetazidine 1 mM+omeprazole 100 μM, trimetazidine 1 mM+omeprazole 200 μM, respectively, to each well by 100 μl each, and plate was incubated in a CO2 incubator, and cold TCA was added to terminate the assay. 50 μl of cold 50% (w/v) TCA (final concentration: 10% TCA) was gently added to fix the cells and incubated at 4° C. for 60 minutes. The supernatant was discarded and the plate was washed 5 times with tap water and then air dried. A solution of 0.4% (w/v) Sulforhodamine B (100 μl) in 1% acetic acid was added to each well, and the plate was left at room temperature for 10 minutes. After staining, the plates were air dried after washing 5 times with 1% acetic acid to remove unbound dye. The bound dye was then solubilized with 10 mM trizma base and the absorbance was recorded at 515 nm using an automated plate reader.

[8] = tested on: Capan2 pancreatic cancer cell line; assay: SRB analysis 1; settings: Homo sapiens, % compared to the control group, read-out: degree of growth inhibition
Protocol: as §2

[9] = tested on: SNU-324 pancreatic cancer cell line; assay: SRB analysis 1; settings: % compared to the control group, read-out: degree of growth inhibition
Protocol: as §2

[10] = tested on: BxPC-3 pancreatic cancer cell line; assay: SRB analysis 1; settings: Homo sapiens, % compared to the control group, read-out: degree of growth inhibition
Protocol: as §2

[11] = tested on: SNU-213 pancreatic cancer cell line; assay: SRB analysis 1; settings: % compared to the control group, read-out: degree of growth inhibition
Protocol: as §2

[12] = tested on: MIA PaCa2 pancreatic cancer cell line; assay: SRB analysis 1; settings: Homo sapiens, % compared to the control group, read-out: degree of growth inhibition
Protocol: as §2

[13] = tested on: HCT-116 colon cancer cell line; assay: SRB analysis 3; settings: 48 hours
Protocol: (§3) Through SRB analysis (n=3), the effect of triple combination treatment of a CAC inhibitor (KN510: omeprazole), ACAA inhibitor (KN713: trimetazidine) and other anticancer drug on cell growth in the cancer cells was analyzed. (see Table 11).
(§4) The SRB assay was performed as follows: each cell line (100 μl) was seeded into 96-well microtiter plates at densities ranging from 5,000 to 40,000 cells/well depending on the doubling time of each cell line. After 24 hours, drug (100 μl per well) was added to each well and the culture was incubated at 37° C. for 48 hours. Cells were then fixed in 50% TCA (50 μl per well) and plates were incubated at 4° C. for a minimum of 1 hour or a maximum of 3 hours. After that, the liquid was removed from the plate, then rinsed 5 times with water and dried for approximately 12-24 hours at room temperature (RT). After the fixed cells were stained with 0.4% SRB (100 μl per well) for 10 minutes at room temperature, the plates were washed 3 times with 1% glacial acetic acid and dried at room temperature for about 12-24 hours. SRB staining was dissolved in 10 mM Trizma base and absorbance was read at 515 nm. The effect of the drug was expressed as GI50 (50% growth inhibition), TGI (total growth inhibition) or LC50 (lethal concentration). GI50 is the maximum concentration at the moment of 50% inhibition of cell proliferation and IC50 is the concentration of the drug that inhibits the enzyme activity in vitro by 50% in this study.

[14] = tested on: MCF7 breast cancer cell line; assay: SRB analysis 3; settings: 48 hours
Protocol: as §3, §4

[15] = tested on: Huh-7 liver cancer cell line; assay: SRB analysis 3; settings: 48 hours
Protocol: as §3, §4

[16] = tested on: ACHN renal cancer cell line; assay: SRB analysis 3; settings: 48 hours
Protocol: as §3, §4

[17] = tested on: UACC62 melanoma cell line; assay: SRB analysis 3; settings: 48 hours
Protocol: as §3, §4

[18] = tested on: A549 non-small cell lung cancer (NSCLC) cell line; assay: SRB analysis 3; settings: 48 hours
Protocol: as §3, §4

[19] = tested on: DU145 prostate cancer cell line; assay: SRB analysis 3; settings: 48 hours
Protocol: as §3, §4

COc1ccc2[nH]c([S+]([O-])Cc3ncc(C)c(OC)c3C)nc2c1 (centres unmarked) [KN510, omeprazole]
degree of cell growth based on the control (100%) ([1]; KN510 100 μM): 43.26%
degree of cell growth based on the control (100%) ([1]; KN510 200 μM): 19.68%
degree of cell growth based on the control (100%) ([2]; KN510 100 μM): 86.46%
degree of cell growth based on the control (100%) ([2]; KN510 200 μM): 44.41%
degree of cell growth based on the control (100%) ([3]; KN510 100 μM): 78.12%
degree of cell growth based on the control (100%) ([3]; KN510 200 μM): 53.01%
degree of cell growth based on the control (100%) ([4]; KN510 100 μM): 77.31%
degree of cell growth based on the control (100%) ([4]; KN510 200 μM): 28.00%
degree of cell growth based on the control (100%) ([5]; KN510 100 μM): 40.19%
degree of cell growth based on the control (100%) ([5]; KN510 200 μM): 17.37%
degree of cell growth based on the control (100%) ([6]; KN510 100 μM): 97.11%
degree of cell growth based on the control (100%) ([6]; KN510 200 μM): 54.29%
cell growth (% of control) at 100 µM ([7]; CAPAN-1, KN510 100 μM): 97.6%
cell growth (% of control) at 200 µM ([7]; CAPAN-1, KN510 200 μM): 111%
inhibition at 100 µM ([8]; Capan-2, KN510 100 μM): 1.3%
inhibition at 200 µM ([8]; Capan-2, KN510 200 μM): 49.5%
inhibition at 100 µM ([9]; KN510 100 μM): 68.2%
inhibition at 200 µM ([9]; KN510 200 μM): 89.8%
inhibition at 100 µM ([10]; BX-PC3, KN510 100 μM): 79.5%
inhibition at 200 µM ([10]; BX-PC3, KN510 200 μM): 96.9%
inhibition at 100 µM ([11]; KN510 100 μM): 81%
inhibition at 200 µM ([11]; KN510 200 μM): 89.6%
inhibition at 100 µM ([12]; MIA PaCa-2, KN510 100 μM): 70.8%
inhibition at 200 µM ([12]; MIA PaCa-2, KN510 200 μM): 92.8%
cell growth (Control = 100) ([13]; KN510 100 μM): 79.65
cell growth (Control = 100) ([14]; KN510 100 μM): 70.3
cell growth (Control = 100) ([15]; KN510 100 μM): 77.73
cell growth (Control = 100) ([16]; KN510 100 μM): 61.17
cell growth (Control = 100) ([17]; KN510 100 μM): 50.83
cell growth (Control = 100) ([18]; KN510 100 μM): 55.4 and 30.1
cell growth (Control = 100) ([19]; KN510 100 μM): 76.71

COc1ccc(CN2CCNCC2)c(OC)c1OC [KN713, trimetazidine]
degree of cell growth based on the control (100%) ([1]; KN713 2.5 mM): 53.40% and 61.55%
degree of cell growth based on the control (100%) ([2]; KN713 2.5 mM): 78.16% and 58.31%
degree of cell growth based on the control (100%) ([3]; KN713 2.5 mM): 88.97% and 65.95%
degree of cell growth based on the control (100%) ([4]; KN713 2.5 mM): 61.66% and 62.56%
degree of cell growth based on the control (100%) ([5]; KN713 2.5 mM): 36.83% and 32.97%
degree of cell growth based on the control (100%) ([6]; KN713 2.5 mM): −0.24% and 1.98%
cell growth (% of control) at 1000 µM ([7]; CAPAN-1, KN713 1 mM): 31.2%
inhibition at 1000 µM ([8]; Capan-2, KN713 1 mM): -22.2%
inhibition at 1000 µM ([9]; KN713 1 mM): -3.16%
inhibition at 1000 µM ([10]; BX-PC3, KN713 1 mM): 12.3%
inhibition at 1000 µM ([11]; KN713 1 mM): 48.1%
inhibition at 1000 µM ([12]; MIA PaCa-2, KN713 1 mM): 30.2%
cell growth (Control = 100) ([13]; KN713 2.5 mM): 36.64
cell growth (Control = 100) ([14]; KN713 2.5 mM): 60.36
cell growth (Control = 100) ([15]; KN713 2.5 mM): 52.09
cell growth (Control = 100) ([16]; KN713 2.5 mM): 65.67
cell growth (Control = 100) ([17]; KN713 2.5 mM): 54.65
cell growth (Control = 100) ([18]; KN713 2.5 mM): 68.8 and 79.2
cell growth (Control = 100) ([19]; KN713 2.5 mM): 55.68
